From patent publication US10858373B2, “Heterocyclic spiro compounds as MAGL inhibitors” (Pfizer Inc., priority 2017, dated 2020)
pIC50: −log10 of the molar value. Read-outs that look alike come from different tables or passages of the source.

Key:
[1] = target: T1, human recombinant Monoacylglycerol Lipase (Homo sapiens (Human), UniProt Q99685); assay: MAGL Enzymatic Assay (fluorogenic substrate 7-HCA), IC50; type: biochemical; settings: geometric mean of 2-4 determinations unless otherwise indicated
Protocol: An equal volume of 7-HCA in assay buffer with 10% DMSO was added either immediately (T=0 min) or after a 30 minute incubation (T=30 min) to initiate the reaction. […] After these dilutions, the final concentration of the test compound ranged from 3 μM to 0.03 nM. […] IC50 values were generated based on a four parameter fit model using ABASE software from IDBS.

[2] = target: T1, human recombinant Monoacylglycerol Lipase; assay: MAGL inactivation (enzyme progress curves, kinact/KI); type: biochemical; settings: from plot of Kobs vs. compound concentration; T=0 min protocol; geometric mean of 2-4 determinations

T1 sequence (Q99685 whole entry): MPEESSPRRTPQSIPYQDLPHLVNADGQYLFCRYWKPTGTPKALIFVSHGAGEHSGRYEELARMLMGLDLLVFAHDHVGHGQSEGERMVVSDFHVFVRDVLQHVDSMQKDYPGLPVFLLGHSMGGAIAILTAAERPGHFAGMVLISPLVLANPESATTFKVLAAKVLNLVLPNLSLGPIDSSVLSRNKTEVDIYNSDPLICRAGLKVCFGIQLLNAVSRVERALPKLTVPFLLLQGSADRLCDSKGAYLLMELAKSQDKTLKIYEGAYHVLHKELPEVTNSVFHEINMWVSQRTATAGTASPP

Compound: CN(C(=O)C(C)(C)C)C1COC2(CCN(C(=O)ON3C(=O)CCC3=O)CC2)C1 (stereo not drawn) [Example 51, N-(8-{[(2,5-dioxopyrrolidin-1-yl)oxy]carbonyl}-1-oxa-8-azaspiro[4.5]dec-3-yl)-N,2,2-trimethylpropanamide]
- pIC50 ([1]; substrate added after a 30 minute incubation (T=30 min), read-out: MAGL (T = 30 min) IC50): < 6.61
- pIC50 ([1]; substrate added immediately (T=0 min), read-out: MAGL (T = 0 min) IC50): < 6.16
- MAGL Kinact/Kl [2]: 3290 1/s per M
